Source: patent US11590167B2, “Methods and compositions for use of therapeutic T cells in combination with kinase inhibitors” (Juno Therapeutics, Inc., priority 2016, dated 2023)

Legend:
anti-CD19 CAR T cells [1] = assay: Expression of CAR-T cell surface markers over 4 days after stimulation with irradiated K562-CD19 (flow cytometry); format: cell-based, human; conditions: four days after initial stimulation
Excerpt: To generate CAR-expressing T cells, T cells were isolated by immunoaffinity-based enrichment from three healthy human donor subjects, and cells from each donor were activated and transduced with a viral vector encoding an anti-CD19 CAR. The CAR contained an anti-CD19 scFv, an Ig-derived spacer, a human CD28-derived transmembrane domain, a human 4-1BB-derived intracellular signaling domain and a human CD3 zeta-derived signaling domain. The nucleic acid construct encoding the CAR also included a truncated EGFR (tEGFR) sequence for use as a transduction marker, separated from the CAR sequence by a self-cleaving T2A sequence.
CAR-expressing CD4+ and CD8+ cells were mixed 1:1 for each donor, individually, and the pooled cells for each donor assessed in vitro under various conditions.
CAR-T cells generated as described above were plated at 100,000 cells/well on 96 well Poly-D-Lysine coated plates. Irradiated K562-CD19 target cells were added at an effector to target ratio of 2.5:1.

anti-CD19 CAR T cells [2] = assay: Cytokine production by anti-CD19 CAR T cells co-cultured with irradiated K562-CD19 (MSD); format: cell-based, human
Protocol: CAR-T cells generated as described above were plated at 100,000 cells/well on 96 well Poly-D-Lysine coated plates. Irradiated target cells (K562-CD19) were added at an effector to target ratio of 2.5:1. […] Culture supernatants were harvested at day 2, 3 or 4, and IFNγ, IL-2 and TNFa were measured from the culture supernatants using cytokine kits from Meso Scale Discovery (MSD).

anti-CD19 CAR-T cells = assay: Serial restimulation assay, expansion of anti-CD19 CAR-T cells; format: cell-based, human
Protocol: The ability of cells to expand ex vivo following repeated stimulations in some aspects can indicate capacity of CAR-T cells to persist (e.g., following initial activation) and/or is indicative of function and/or fitness in vivo (Zhao et al. (2015) Cancer Cell, 28:415-28). Anti-CD19 CAR-T cells generated as described above were plated in triplicate at 100,000 cells/well on 96 well Poly-D-Lysine coated plates, and irradiated target cells (K562-CD19) were added at an effector to target ratio of 2.5:1. […] A total of 7 rounds of stimulation during a 25 day culture period were carried out.
For each round of stimulation, the fold change in cell number and the number of doublings was determined. […] Expansion kinetics were similar in all treatment groups after three rounds of stimulation (day 11), as observed by fold change and number of population doublings. […] The cells derived from the two donors in which these differences were observed, generally, as compared to those derived from the other donor, performed less well in the serial restimulation assay in the absence of either inhibitor.

CAR T cells = assay: Activation and memory markers of CAR T cells from the serial stimulation assay (flow cytometry); format: cell-based, human; conditions: days 0, 11, 18 and 21 of serial stimulation
[3] = test system: EGFRt+ CAR T cells and/or tumor cells; assay: CAR+ T cell and tumor cell counts in blood and bone marrow of Nalm-6 bearing mice; format: in vivo, NSG mice
Protocol: NSG mice described in Example 2 were intravenously injected on day 0 with 5×10^5 Nalm-6 cells expressing firefly luciferase. […] A bridging experiment confirmed that administration of ibrutinib by drinking water was equivalent to oral gavage administration (data not shown). To permit assessment of the effect of a combination therapy with the inhibitor, a suboptimal dose of anti-CD19 CAR T cells was i.v. injected into the mice at 5×10^5/mouse at day 5. As a control, mice were administered the vehicle control without administration of the CAR-T cells or inhibitor.

RLK/TXK = molecular target: T1, RLK/TXK (Homo sapiens, UniProt P42681); conditions: literature value given as embodiment; read-out: IC50 value, inhibitory activity against RLK/TXK; cited from earlier work
T1 sequence (P42681 1-527): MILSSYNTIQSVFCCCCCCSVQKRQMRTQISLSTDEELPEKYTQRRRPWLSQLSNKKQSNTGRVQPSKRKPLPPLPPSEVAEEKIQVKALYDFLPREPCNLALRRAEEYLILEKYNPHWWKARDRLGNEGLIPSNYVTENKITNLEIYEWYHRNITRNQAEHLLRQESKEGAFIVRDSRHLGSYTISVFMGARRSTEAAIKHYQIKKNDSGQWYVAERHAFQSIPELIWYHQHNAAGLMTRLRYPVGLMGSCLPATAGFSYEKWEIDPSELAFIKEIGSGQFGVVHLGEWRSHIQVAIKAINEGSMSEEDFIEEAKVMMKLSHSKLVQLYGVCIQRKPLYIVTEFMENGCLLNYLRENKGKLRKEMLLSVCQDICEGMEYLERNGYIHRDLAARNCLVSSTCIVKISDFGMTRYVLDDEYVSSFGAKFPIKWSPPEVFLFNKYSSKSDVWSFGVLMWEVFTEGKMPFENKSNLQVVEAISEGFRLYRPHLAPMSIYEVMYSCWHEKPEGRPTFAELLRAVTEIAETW

Itk = molecular target: T2, Itk (Homo sapiens, UniProt Q08881); conditions: reported, Byrd et al. 2016; cited from earlier work
T2 sequence (Q08881 1-620): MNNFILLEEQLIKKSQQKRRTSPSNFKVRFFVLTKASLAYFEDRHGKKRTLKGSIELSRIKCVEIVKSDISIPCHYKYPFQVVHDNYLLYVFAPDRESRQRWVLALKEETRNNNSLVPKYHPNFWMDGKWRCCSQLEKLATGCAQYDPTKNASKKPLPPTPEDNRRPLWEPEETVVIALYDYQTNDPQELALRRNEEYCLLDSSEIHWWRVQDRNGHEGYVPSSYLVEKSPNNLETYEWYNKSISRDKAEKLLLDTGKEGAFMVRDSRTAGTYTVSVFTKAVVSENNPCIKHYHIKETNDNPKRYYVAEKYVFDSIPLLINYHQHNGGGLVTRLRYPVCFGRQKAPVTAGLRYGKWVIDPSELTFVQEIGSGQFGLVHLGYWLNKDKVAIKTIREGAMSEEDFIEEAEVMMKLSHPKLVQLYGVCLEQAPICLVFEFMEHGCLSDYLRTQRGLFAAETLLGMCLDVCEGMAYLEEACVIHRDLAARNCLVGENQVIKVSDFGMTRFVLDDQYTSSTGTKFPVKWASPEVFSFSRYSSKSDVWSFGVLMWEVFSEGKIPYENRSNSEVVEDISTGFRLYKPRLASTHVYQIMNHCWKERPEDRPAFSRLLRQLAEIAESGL

[4] = observed Cmax quoted for dosage range; cited from earlier work

## CC#CC(=O)N1CCC[C@H]1c1nc(-c2ccc(C(=O)Nc3ccccn3)cc2)c2c(N)nccn12 [compound of Formula (II)]
anti-CD19 CAR T cells [1]
  phenotype of cells as central (TCM) or effector (TEM) memory subsets by CCR7 and CD45RA: did not affect the phenotype of cells as central (TCM) or effector (TEM) memory subsets
anti-CD19 CAR T cells [2]; overall, three donors, culture supernatants, ibrutinib 0.5-500 nM, Formula (II) 50-5000 nM
  CAR T cytokine production (IFNγ, IL-2, TNFα) following stimulation with K562.CD19 cells: did not inhibit CAR T cytokine production
anti-CD19 CAR T cells [2]; some donors, compound of Formula (II)
  cytokine production: modestly increased cytokine production in some donors
anti-CD19 CAR-T cells; by day 18, CAR+ T cells from two of the three donors, each concentration assessed
  expansion as measured by population doublings following multiple rounds of restimulation: observed to be enhanced
anti-CD19 CAR-T cells; donor 3, highest concentration tested
  cell counts after five rounds of stimulation (day 18): Non-significant, increased cell counts
CAR T cells
  additional CAR T activation or memory markers (CD25, CD38, CD39, CD45RO, CD62L, CD69, CD107a, PD-1): No significant effects
[3]; CAR+ cell treatment combined with inhibitor
  tumor cells in the blood or bone marrow compared to CAR+ cells with vehicle alone: significantly fewer tumor cells were detected
[3]; blood, days 7, 12, 19 and 26 post CAR+ T cell transfer, drinking water 25 mg/kg/day
  circulating CAR+ T cells compared to CAR+ T cells and vehicle: significant increase in circulating CAR+ T cells
[3]; day 19 post CAR-T cell transfer, ibrutinib p<0.05, Formula (II) p<0.001
  number of cells in the blood: significant increase in the number of cells in the blood
RLK/TXK
  IC50: ~368 nM
Itk
  lower affinity for ITK compared with ibrutinib: > 200 times
[4]
  Cmax: 1800 nM
